The record followed here is patent publication US8765784B2, “Positive allosteric modulators of MGLUR2” (Merck Sharp & Dohme Corp., priority 2010, dated 2014).

A word on the EC50: it is the concentration needed to bring the measured effect to its halfway point.

The target in this test is T1, human mGluR2 (Homo sapiens, UniProt Q14416).
T1 construct: expressed in transfected cells
T1 sequence (Q14416 19-872): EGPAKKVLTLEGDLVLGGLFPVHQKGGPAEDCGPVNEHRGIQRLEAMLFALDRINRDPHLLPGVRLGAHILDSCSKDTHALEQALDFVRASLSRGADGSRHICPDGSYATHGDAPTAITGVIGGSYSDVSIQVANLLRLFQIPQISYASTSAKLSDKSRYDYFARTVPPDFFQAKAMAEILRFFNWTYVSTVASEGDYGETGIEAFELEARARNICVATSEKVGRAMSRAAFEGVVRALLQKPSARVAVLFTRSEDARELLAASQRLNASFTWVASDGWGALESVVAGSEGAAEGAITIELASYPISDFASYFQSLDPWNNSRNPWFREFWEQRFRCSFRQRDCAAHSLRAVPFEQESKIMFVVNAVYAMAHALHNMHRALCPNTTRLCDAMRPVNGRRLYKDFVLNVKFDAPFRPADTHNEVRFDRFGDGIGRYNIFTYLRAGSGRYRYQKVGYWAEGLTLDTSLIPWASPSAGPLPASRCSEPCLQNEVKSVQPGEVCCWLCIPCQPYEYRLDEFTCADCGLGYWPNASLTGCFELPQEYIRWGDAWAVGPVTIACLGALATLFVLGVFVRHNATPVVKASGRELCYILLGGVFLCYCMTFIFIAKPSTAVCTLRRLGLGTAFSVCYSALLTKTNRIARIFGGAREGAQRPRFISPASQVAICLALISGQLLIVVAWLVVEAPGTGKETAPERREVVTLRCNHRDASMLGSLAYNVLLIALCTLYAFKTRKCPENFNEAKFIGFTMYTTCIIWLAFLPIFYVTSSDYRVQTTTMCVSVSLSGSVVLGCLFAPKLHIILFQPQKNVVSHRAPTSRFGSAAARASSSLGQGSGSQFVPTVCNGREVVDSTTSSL
Description: FLIPR Ca2+ mobilization assay, potentiation of mGluR2. In kind it is cell-based. Conditions: CHO dhfr- cells expressing recombinant human mGluR2 and Gα16; potentiation after EC20 glutamate (900 nM); read-out: IC50 (Representative FLIPR EC50 Values). On the procedure: Activity in potentiating the mGluR2 receptor may be determined as follows. The compounds of the present invention are tested in a fluorescence laser imaging plate reader (FLIPR) based assay. This assay is a common functional assay to monitor Ca^2+ mobilization in whole cells expressing recombinant receptor coupled with a promiscuous G-protein. CHO dhfr-cells stably expressing recombinant human mGluR2 and Gα16 loaded with Fluo-4 AM (Invitrogen, Carlsbad Calif.) are treated with dose responses of compounds and the Ca^2+ response is monitored on a FLIPR384 (Molecular Devices, Sunnydale Calif.) for agonist activity. The potentiation response is monitored after a subsequent addition of an EC20 concentration of glutamate (900 nM). The maximum calcium response at each concentration of compound for agonist or potentiation are plotted as dose responses and the curves are fitted with a four parameters logistic equation giving EC50 and Hill coefficient using the iterative non linear curve fitting software program.
For `Cn1c(=O)n(CC(C)(C)C)c2ccc(-c3cccc(C(C)(C)O)c3F)nc21` [Compound 60-1, 1-(2,2-dimethylpropyl)-5-[2-fluoro-3-(1-hydroxy-1-methylethyl)phenyl]-3-methyl-1,3-dihydro-2H-imidazo[4,5-b]pyridin-2-one], the EC50 was found to be 25 nM.

Turning to `Cn1c(=O)n(CC(C)(C)C)c2ccc(-c3cc(CN4CCS(=O)(=O)CC4)ccc3C#N)nc21` [Compound 21-11, 2-[1-(2,2-dimethylpropyl)-3-methyl-2-oxo-2,3-dihydro-1H-imidazo[4,5-b]pyridin-5-yl]-4-[(1,1-dioxidothiomorpholin-4-yl)methyl]benzonitrile], the EC50 was determined as 34 nM. With `Cn1c(=O)n(CC(C)(C)C)c2ccc(-c3cc(CN4CCN(S(C)(=O)=O)CC4)ccc3C#N)nc21` [Compound 21-45, 2-[1-(2,2-dimethylpropyl)-3-methyl-2-oxo-2,3-dihydro-1H-imidazo[4,5-b]pyridin-5-yl]-4-{[4-(methylsulfonyl)piperazin-1-yl]methyl}benzonitrile] the figure was 21 nM. Take `Cn1c(=O)n(CC(C)(C)C)c2ccc(-c3cccc(CN4CCc5onc(O)c5C4)c3F)nc21` [Compound 61-4, 1-(2,2-dimethylpropyl)-5-{2-fluoro-3-[(3-hydroxy-6,7-dihydroisoxazolo[4,5-c]pyridin-5(4H)-yl)methyl]phenyl}-3-methyl-1,3-dihydro-2H-imidazo[4,5-b]pyridin-2-one]: the half-maximal effective concentration (EC50) was determined as 11 nM. Turning to `Cc1ccc(CC(C)(C)O)cc1-c1ccc2c(n1)n(C)c(=O)n2CC(C)(C)C` [Compound 81-3, 1-(2,2-dimethylpropyl)-5-[5-(2-hydroxy-2-methylpropyl)-2-methylphenyl]-3-methyl-1,3-dihydro-2H-imidazo[4,5-b]pyridin-2-one], the EC50 is 43 nM. With `Cn1c(=O)n(CC(C)(C)C)c2ccc(-c3cc(Oc4ccnc(C#N)c4)ccc3C#N)nc21` [Compound 16-3, 4-{4-cyano-3-[1-(2,2-dimethylpropyl)-3-methyl-2-oxo-2,3-dihydro-1H-imidazo[4,5-b]pyridin-5-yl]phenoxy}pyridine-2-carbonitrile] the figure was 8 nM. With `Cc1ccc(CN2CCN(S(C)(=O)=O)CC2)cc1-c1ccc2c(n1)n(C)c(=O)n2CC1CC1(F)F` (stereo not shown) [Compound 56-4, 1-[(2,2-difluorocyclopropyl)methyl]-3-methyl-5-(2-methyl-5-{[4-(methylsulfonyl)piperazin-1-yl]methyl}phenyl)-1,3-dihydro-2H-imidazo[4,5-b]pyridin-2-one] the figure was 35 nM; with `CC(O)C(=O)N1CCCC(c2cccc(-c3ccc4c(n3)n(C)c(=O)n4CC(C)(C)C)c2)C1` (stereo not shown) [Compound 65-6, 1-(2,2-dimethylpropyl)-5-{3-[1-(2-hydroxypropanoyl)piperidin-3-yl]phenyl}-3-methyl-1,3-dihydro-2H-imidazo[4,5-b]pyridin-2-one], 28 nM; with `Cc1ccc(CN2CCN(S(C)(=O)=O)CC2)cc1-c1ccc2c(n1)n(C)c(=O)n2CC(C)(C)C` [Compound 51-10, 1-(2,2-dimethylpropyl)-3-methyl-5-(2-methyl-5-{[4-(methylsulfonyl)piperazin-1-yl]methyl}phenyl)-1,3-dihydro-2H-imidazo[4,5-b]pyridin-2-one], 26 nM.

As to `CC(=O)N1CCN(Cc2ccc(C)c(-c3ccc4c(n3)n(C)c(=O)n4CC(C)(C)C)c2)CC1` [Compound 51-9, 5-{5-[(4-acetylpiperazin-1-yl)methyl]-2-methylphenyl}-1-(2,2-dimethylpropyl)-3-methyl-1,3-dihydro-2H-imidazo[4,5-b]pyridin-2-one], the EC50 was 226 nM.

As for `CC(=O)N1CCN(Cc2ccc(C#N)c(-c3ccc4c(n3)n(C)c(=O)n4CC(C)(C)C)c2)CC1` [Compound 21-47, 4-[(4-acetylpiperazin-1-yl)methyl]-2-[1-(2,2-dimethylpropyl)-3-methyl-2-oxo-2,3-dihydro-1H-imidazo[4,5-b]pyridin-5-yl]benzonitrile], the EC50 amounted to 74 nM. `COC(=O)NC(C)(C)c1ccc(C)c(-c2ccc3c(n2)n(C)c(=O)n3CC(C)(C)C)c1` [Compound 42-3, Methyl (1-{3-[1-(2,2-dimethylpropyl)-3-methyl-2-oxo-2,3-dihydro-1H-imidazo[4,5-b]pyridin-5-yl]-4-methylphenyl}-1-methylethyl)carbamate]: the concentration for a half-maximal effect (EC50) came out at 37 nM. With `Cn1c(=O)n(CC(C)(C)C)c2ccc(-c3cccc(N4CCN(C(=O)c5ccon5)CC4)c3)nc21` [Compound 66-4, 1-(2,2-dimethylpropyl)-5-{3-[4-(isoxazol-3-ylcarbonyl)piperazin-1-yl]phenyl}-3-methyl-1,3-dihydro-2H-imidazo[4,5-b]pyridin-2-one] the figure was 45 nM.
